This is an account of results in patent US11299501B2 (BRISTOL-MYERS SQUIBB COMPANY, priority 2017, dated 2022).

Common to all, as to format: cell-based
The target of test [1] is T1, human TLR7 (Homo sapiens, UniProt Q9NYK1).
T1 construct: host or cells: HEK-Blue cells
T1 sequence (Q9NYK1 27-1049): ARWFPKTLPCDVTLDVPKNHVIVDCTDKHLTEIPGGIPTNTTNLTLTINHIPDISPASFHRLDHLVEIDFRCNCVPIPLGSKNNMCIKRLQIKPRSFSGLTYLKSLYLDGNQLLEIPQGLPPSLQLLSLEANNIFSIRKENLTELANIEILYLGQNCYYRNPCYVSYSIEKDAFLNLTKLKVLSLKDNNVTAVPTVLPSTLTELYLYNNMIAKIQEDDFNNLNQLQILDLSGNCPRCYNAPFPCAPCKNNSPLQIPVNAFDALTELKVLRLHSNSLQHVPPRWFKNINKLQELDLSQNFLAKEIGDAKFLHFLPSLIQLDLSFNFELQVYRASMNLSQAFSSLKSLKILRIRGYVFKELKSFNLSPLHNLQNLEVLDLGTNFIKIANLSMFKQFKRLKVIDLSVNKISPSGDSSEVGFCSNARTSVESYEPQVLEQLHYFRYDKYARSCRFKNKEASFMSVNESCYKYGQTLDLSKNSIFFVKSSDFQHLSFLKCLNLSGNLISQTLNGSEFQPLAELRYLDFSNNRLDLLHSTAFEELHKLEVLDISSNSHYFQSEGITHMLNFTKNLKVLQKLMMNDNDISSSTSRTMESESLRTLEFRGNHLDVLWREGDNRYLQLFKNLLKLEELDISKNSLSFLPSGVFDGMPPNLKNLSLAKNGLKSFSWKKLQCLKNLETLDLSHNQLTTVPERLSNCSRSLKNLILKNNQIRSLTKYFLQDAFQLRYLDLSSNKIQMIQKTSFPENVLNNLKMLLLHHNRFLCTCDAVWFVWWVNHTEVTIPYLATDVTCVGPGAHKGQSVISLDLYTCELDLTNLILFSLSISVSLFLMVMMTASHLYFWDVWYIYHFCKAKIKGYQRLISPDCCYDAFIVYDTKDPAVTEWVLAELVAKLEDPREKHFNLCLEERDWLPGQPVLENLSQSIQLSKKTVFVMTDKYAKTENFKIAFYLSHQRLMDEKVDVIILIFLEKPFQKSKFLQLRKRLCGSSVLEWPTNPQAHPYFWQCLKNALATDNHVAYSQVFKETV
The test can be described thus: TLR7 inhibition reporter assay (HEK-Blue SEAP). The settings on record: cells overexpressing human TLR7, SEAP reporter, stimulated with gardiquimod 7.5 μM, 22 hour incubation. The protocol:
(§1) TLR7/8/9 Inhibition Reporter Assays
(§2) […] (Invivogen) overexpressing human TLR7, TLR8 or TLR9 receptors were used for screening inhibitors of these receptors using an inducible SEAP (secreted embryonic alkaline phosphatase) reporter gene under the control of the IFN-β minimal promoter fused to five NF-κB and AP-1-binding sites. Briefly, cells are seeded into Greiner 384 well plates (15000 cells per well for TLR7, 20,000 for TLR8 and 25,000 for TLR9) and then treated with test compounds in DMSO to yield a final dose response concentration range of 0.05 nM-50 μM. After a 30 minute compound pre-treatment at room temperature, the cells are then stimulated with a TLR7 ligand (gardiquimod at a final concentration of 7.5 μM). TLR8 ligand (R848 at a final concentration of 15.9 μM) or TLR9 ligand (ODN2006 at a final concentration of 5 nM) to activate NF-κB and AP-1 which induce the production of SEAP. After a 22 hour incubation at 37° C., 5% CO2, SEAP levels are determined with the addition of HEK-Blue™ Detection reagent (Invivogen), a cell culture medium that allows for detection of SEAP, according to manufacturer's specifications. The percent inhibition is determined as the % reduction in the HEK-Blue signal present in wells treated with agonist plus DMSO alone compared to wells treated with a known inhibitor.
In general terms: In a reporter assay the amount or activity of a reporter protein is the signal.

Test [2] concerns the target T2, human TLR8 (Homo sapiens, UniProt Q9NR97).
T2 construct: host or cells: HEK-Blue cells
T2 sequence (Q9NR97 27-1041): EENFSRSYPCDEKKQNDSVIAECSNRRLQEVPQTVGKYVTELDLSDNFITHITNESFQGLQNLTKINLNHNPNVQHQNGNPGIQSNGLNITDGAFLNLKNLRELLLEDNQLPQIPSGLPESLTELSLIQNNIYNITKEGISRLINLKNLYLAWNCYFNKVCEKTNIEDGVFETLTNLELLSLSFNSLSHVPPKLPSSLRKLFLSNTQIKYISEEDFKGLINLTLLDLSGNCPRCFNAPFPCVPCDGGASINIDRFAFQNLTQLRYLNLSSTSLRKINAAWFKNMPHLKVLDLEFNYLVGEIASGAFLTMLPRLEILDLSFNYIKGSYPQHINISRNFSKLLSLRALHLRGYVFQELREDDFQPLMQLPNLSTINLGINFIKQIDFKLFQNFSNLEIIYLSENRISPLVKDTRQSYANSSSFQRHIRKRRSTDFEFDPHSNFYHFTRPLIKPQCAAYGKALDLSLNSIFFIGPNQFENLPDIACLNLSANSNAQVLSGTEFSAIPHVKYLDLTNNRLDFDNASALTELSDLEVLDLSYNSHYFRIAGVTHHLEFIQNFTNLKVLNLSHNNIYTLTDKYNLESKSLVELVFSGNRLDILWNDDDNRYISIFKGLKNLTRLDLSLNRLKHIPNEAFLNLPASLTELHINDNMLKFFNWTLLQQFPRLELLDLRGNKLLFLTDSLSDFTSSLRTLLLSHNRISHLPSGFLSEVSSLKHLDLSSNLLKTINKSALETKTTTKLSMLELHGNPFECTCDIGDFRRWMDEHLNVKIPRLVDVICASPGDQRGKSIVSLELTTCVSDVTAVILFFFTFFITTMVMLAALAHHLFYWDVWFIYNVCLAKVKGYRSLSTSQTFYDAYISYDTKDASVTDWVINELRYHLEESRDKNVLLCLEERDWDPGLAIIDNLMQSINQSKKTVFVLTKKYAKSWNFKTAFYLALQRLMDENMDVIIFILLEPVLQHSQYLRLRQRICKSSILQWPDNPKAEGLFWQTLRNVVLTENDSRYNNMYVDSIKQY
The test can be described thus: TLR8 inhibition reporter assay (HEK-Blue SEAP). To be noted: cells overexpressing human TLR8, SEAP reporter, stimulated with R848 15.9 μM, 22 hour incubation. The protocol:
as §1, §2

Test [3] concerns the target T3, human TLR9 (Homo sapiens, UniProt Q9NR96).
T3 construct: host or cells: HEK-Blue cells
T3 sequence (Q9NR96 26-1032): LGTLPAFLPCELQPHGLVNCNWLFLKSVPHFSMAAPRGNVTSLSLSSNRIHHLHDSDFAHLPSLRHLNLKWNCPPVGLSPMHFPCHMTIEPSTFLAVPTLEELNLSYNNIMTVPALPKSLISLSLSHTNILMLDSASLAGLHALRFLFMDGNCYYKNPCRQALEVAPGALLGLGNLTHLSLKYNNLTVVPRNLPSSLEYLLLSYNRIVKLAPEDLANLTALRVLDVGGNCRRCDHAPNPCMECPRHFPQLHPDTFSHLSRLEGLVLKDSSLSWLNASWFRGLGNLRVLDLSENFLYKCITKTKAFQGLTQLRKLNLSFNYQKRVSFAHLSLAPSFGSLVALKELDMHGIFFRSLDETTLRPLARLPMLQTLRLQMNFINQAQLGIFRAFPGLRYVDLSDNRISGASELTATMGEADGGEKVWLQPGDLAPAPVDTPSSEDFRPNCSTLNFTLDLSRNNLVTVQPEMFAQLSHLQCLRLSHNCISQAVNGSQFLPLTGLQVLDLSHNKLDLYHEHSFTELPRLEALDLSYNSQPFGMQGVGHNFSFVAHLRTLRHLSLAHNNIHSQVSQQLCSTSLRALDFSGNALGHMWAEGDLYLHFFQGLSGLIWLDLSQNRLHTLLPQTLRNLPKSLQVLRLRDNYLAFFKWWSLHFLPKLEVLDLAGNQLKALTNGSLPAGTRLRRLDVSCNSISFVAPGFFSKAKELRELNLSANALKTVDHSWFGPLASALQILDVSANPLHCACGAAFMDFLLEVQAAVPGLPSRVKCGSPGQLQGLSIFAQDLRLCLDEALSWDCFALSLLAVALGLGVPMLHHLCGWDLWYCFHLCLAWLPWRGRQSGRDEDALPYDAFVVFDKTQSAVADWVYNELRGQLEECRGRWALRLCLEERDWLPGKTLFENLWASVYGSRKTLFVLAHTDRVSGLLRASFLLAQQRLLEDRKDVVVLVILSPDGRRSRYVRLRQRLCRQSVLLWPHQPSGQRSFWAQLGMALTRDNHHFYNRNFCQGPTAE
The test can be described thus: TLR9 inhibition reporter assay (HEK-Blue SEAP). To be noted: cells overexpressing human TLR9, SEAP reporter, stimulated with ODN2006 5 nM, 22 hour incubation. On the procedure:
as §1, §2

Broadly, the IC50 is the concentration needed to halve the response being measured. Consider `Cc1cc(-c2[nH]c3cnc(C4CCN(C5CCOC5)CC4)nc3c2C(C)C)cn(C)c1=O` (stereo not drawn) [Example 12, 5-(7-isopropyl-2-(1-(tetrahydrofuran-3-yl)piperidin-4-yl)-5H-pyrrolo[3,2-d]pyrimidin-6-yl)-1,3-dirnethylpyridin-2(1H)-one], for which the IC50 in test [1] is less than 100 nM; in test [2], less than 100 nM; in test [3], 1000 to 50000 nM.
For the compound `Cc1c(-c2[nH]c3cnc(C4CCN(C5CCOCC5)CC4)nc3c2C(C)C)cn2ncnc2c1C` [Example 13, 6-(7-isopropyl-2-(1-(tetrahydro-2H-pyran-4-yl)piperidin-4-yl)-5H-pyrrolo[3,2-d]pyrimidin-6-yl)-7,8-dimeihyl-[1,2,4]triazolo[1,5-a]pyridine], the figures for the IC50 in test [1], in test [2] and in test [3] were less than 100 nM, less than 100 nM and 1000 to 50000 nM, respectively.
Consider `COc1cc(-c2[nH]c3cnc(C4CCN(C5COC5)CC4)nc3c2C(C)C)cn2ncnc12` [Example 14, 6-(7-isopropyl-2-(1-(oxetan-3-yl)piperidin-4-yl)-5H-pyrrolo[3,2-d]pyrimidin-6-yl)-8-methoxy-[1,2,4]triazolo[1,5-a]pyridine], for which the IC50 in test [1] is less than 100 nM; in test [2], less than 100 nM; in test [3], 1000 to 50000 nM.
For `COc1cc(-c2[nH]c3cnc(C4CCN(CC(C)(C)O)CC4)nc3c2C(C)C)cn2ncnc12` [Example 15, 1-(4-(7-isopropyl-6-(8-methoxy-[1,2,4]triazolo[1,5-a]pyridin-6-yl)-5H-pyrrolo[3,2-d]pyrimidin-2-yl)piperidin-1-yl)-2-methylpropan-2-ol], the results for the IC50 in test [1], in test [2] and in test [3] were less than 100 nM, less than 100 nM and 1000 to 50000 nM, respectively.
With `COc1ccc(-c2[nH]c3cnc(C4CCNCC4)nc3c2C(C)C)cc1OC` [Example 17, 6-(3,4-dimethoxyphenyl)-7-isopropyl-2-(piperidin-4-yl)-5H-pyrrolo[3,2-d]pyrimidine], the IC50 in test [1] is less than 100 nM; in test [2] it was less than 100 nM; in test [3], 100 to 1000 nM.
With `COc1ccc(-c2[nH]c3cnc(C4CCN(C(=O)CN(C)C)CC4)nc3c2C(C)C)cc1OC` [Example 18, 1-(4-(6-(3,4-dimethoxyphenyl)-7-isopropyl-5H-pyrrolo[3,2-d]pyrimidin-2-yl)piperidin-1-yl)-2-(dimethylanino)ethan-1-one], the IC50 is less than 100 nM in test [1], 100 to 1000 nM in test [2] and 100 to 1000 nM in test [3].
Consider `Cc1c(-c2[nH]c3cnc(C4CCN(C5COC5)CC4)nc3c2C(C)C)cn2ncnc2c1C` [Example 19, 6-(7-isopropyl-2-(1-(oxetan-3-yl)piperidin-4-yl)-5H-pyrrolo[3,2-d]pyrimidin-6-yl)-7,8-dimethyl-[1,2,4]triazolo[1,5-a]pyridine], for which the values for the IC50 in test [1], in test [2] and in test [3] were less than 100 nM, less than 100 nM and 1000 to 50000 nM, respectively.
As to `Cc1cc(-c2[nH]c3cnc(C4CCN(CC(C)(C)O)CC4)nc3c2C(C)C)cn2ncnc12` [Example 20, 1-(4-(7-isopropyl-6-(8-methyl-[1,2,4]triazolo[1,5-a]pyridin-6-yl)-5H-pyrrolo[3,2-d]pyrimidin-2-yl)piperidin-1-yl)-2-methylpropan-2-ol], the 50% inhibitory concentration (IC50) is less than 100 nM in test [1], less than 100 nM in test [2] and 1000 to 50000 nM in test [3].
For the compound `Cc1cc(-c2[nH]c3cnc(C4CCN(C5CCOCC5)CC4)nc3c2C(C)C)cn(C)c1=O` [Example 21, 5-(7-isopropyl-2-(1-(tetrahydro-2H-pyran-4-yl)piperidin-4-yl)-5H-pyrrolo[3,2-d]pyrimidin-6-yl)-1,3-dimethylpyridin-2(1H)-one], the values for the half-maximal inhibitory concentration (IC50) in test [1], in test [2] and in test [3] were less than 100 nM, less than 100 nM and 100 to 1000 nM, respectively.
As to `COc1ccc(-c2[nH]c3cnc(C4CCN(C5CCN(C(C)C)CC5)CC4)nc3c2C(C)C)cc1OC` [Example 22, 6-(3,4-dimedioxyphenyl)-7-isopropyl-2-(1′-isopropyl-[1,4′-bipiperidin]-4-yl)-5H-pyrrolo[3,2-d]pyrimidine], the figures for the IC50 in test [1], in test [2] and in test [3] were less than 100 nM, less than 100 nM and 100 to 1000 nM, respectively.
In the case of `CCc1c(-c2ccnc(C)c2)[nH]c2cnc(C3CCN(C4CCN(C(C)C)CC4)CC3)nc12` [Example 23, 7-ethyl-2-(1′-isopropyl-[1,4′-bipiperidin]-4-yl)-6-(2-methylpyridin-4-yl)-5H-pyrrolo[3,2-d]pyrimidine], the concentration for half-maximal inhibition (IC50) in test [1] was 100 to 1000 nM; in test [2] it was less than 100 nM; in test [3], 100 to 1000 nM.
